Read-outs that look alike come from different tables or passages of the source.
Columns and labels:
progressive MS patients = details: cited from earlier work
SP & PPMS forms = details: summary of prior art; cited from earlier work
[1] = system: Lymph node cell suspensions obtained from C57BL/6 and BALB/c mice; assay: Lymph node cell co-culture, IL-2 release (ELISA) and T cell proliferation (Cell Titer); format: cell-based; details: increasing concentrations, 72 h, FIG. 1A
Procedure: (§1) (A) Lymph node cell suspensions obtained from C57BL/6 and BALB/c mice were co-cultured with increasing concentrations of IB-MS for 72 h. After this time, supernatants were harvested and analyzed for IL-2 release by ELISA assay (circles) and T cell proliferation (squares) was determined by Cell Titer assay. (B) Mice treated with vehicle (solid circles) or andrographolide (empty circles) were MOG-immunized one week later and clinical score determined daily.

[2] = system: MOG-immunized C57BL/6J mice (EAE); assay: EAE therapeutic treatment from chronic phase (day 15 post-immunization); format: in vivo
Procedure: […] […] As controls MOG-immunized C57BL/6J mice were injected with vehicle (PBS) daily. At day 21 p.i. mice were sacrificed. MOG-immunized mice treated with either PBS (A-C) or AG (B-D) were perfussed and 4% p-formaldehyde fixed. Toraxic spinal cords sections were dissected and analyzed for inflammatory infiltrate by hematoxylin-eosin staining (H&E) and for demyelination with luxol fast blue staining (LFB). Insets show higher magnification (20×).

MOG-immunized mice (EAE) = assay: EAE prevention: treatment before MOG immunization, daily clinical score; format: in vivo; details: MOG-immunized one week after treatment, FIG. 1B
Procedure: as §1

MS participants = details: cited from earlier work
SPMS and PPMS patients = details: cited from earlier work
patients with PPMS = details: 95% confidence interval 0.71-1.07; p=0.1753; non-significant delay; cited from earlier work
[3] = system: patients with RRMS, PRMS and SPMS with relapses; details: 2 years follow-up, p=0.05; cited from earlier work
[4] = system: patients with worsening RRMS or SPMS with relapses; details: 24 months, 95% CI 0.17-0.44; p<0.001; cited from earlier work
[5] = system: patients with progressive forms of Multiple Sclerosis; assay: Controlled, randomized, double-blinded human clinical trial of andrographolide; format: in vivo
Procedure: We have tested andrographolide in a controlled, randomized, double-blinded human clinical trial of andrographolide 140 mg orally administered twice per day (i.e., 280 mg per day) in patients with progressive forms of Multiple Sclerosis. The principle objective of that study was to determine efficacy, safety and tolerability of andrographolide in retarding the progression of brain atrophy. Secondary end-points included: delay in the disability capacity progression through the Expanded Disability Status Scale (EDSS) and Multiple Sclerosis Funcitonal Composite (MSFC) at 24 months compared to the baseline; delay in cognitive impairment by means of Paced Auditory Serial Addition Test (PASAT), Symbol Digit Modalities Test (SDMT) and depression (Beck) at 24 months compared to the baseline; quality of life Multiple Sclerosis Impact Scale (MSIS 29) and fatigue (Krupp) through parameters reported by the patients at 24 months compared to the baseline; Tolerability of andrographolide measured by Magnetic Resonance (MR) at 24 months compared to baseline; Number and volume of new lesions or larger size in T2 by MR at 24 months compared to the baseline; Number of new hipointense lesions in T1 or (gadolinium captive) by MR at 24 months compared to baseline; Delay in the retinal thinning measured by Optical Coherence Tomography (OCT) and visual field at 24 months compared to the baseline; and Safety of andrographolide at 24 months through the record of adverse effects in symptom diary and programmed interviews. The details of the study are described more completely in U.S. Provisional patent application Ser. No. 62/347,218 (filed 8 Jun. 2016), incorporated here by reference.
The numbers (x axis) on the figure are measurements 6: corresponds to 2 year treatment. There are still many patients that need to complete the 2 year treatment. The data therefore show a lot of variance. […] The 9-HPT is a brief, standardized, quantitative test of upper extremity function. It is the second component of the MSFC to be administered at each visit. Both the dominant and non-dominant hands are tested twice. The patient is seated at a table with a small, shallow container holding nine pegs and a wood or plastic block containing nine empty holes. On a start command when a stopwatch is started, the patient picks up the nine pegs one at a time as quickly as possible, puts them in the nine holes, and, once they are in the holes, removes them again as quickly as possible one at a time, replacing them into the shallow container. The total time to complete the task is recorded. Two consecutive trials with the dominant hand are immediately followed by two consecutive trials with the non-dominant hand.
There are 3 components of the Multiple Sclerosis Functional Composite (MSFC) disease activity index: function of the legs, function of the arms and cognitive function. The corresponding tests are a 25 feet (7.6 m) walk; test of 9 holes and pin and the Paced Auditory Serial Addition test 3 (PASAT3). Multiple attempts will be made of each test in each visit. The MSFC score and the scores of the 3 sub-scales and the change from the basal values will be recorded in each visit
One measure of progressive MS disease severity is the Expanded Disability Status Scale (EDSS). EDSS is a scale to determine the neurological disability in MS and is used to confirm progression of the disease. It consists of a system of two parts. The first part measures eight functional systems (FS). The second part measures disability on a scale of […], zero being no disability and 10 being death due to MS.
The Nine Hole Pin Test (9HPT) is a component of the MS Functional Composite (MSFC) score. 9HPT is a timed test measuring the time (seconds) required to insert each of nine pins into nine holes in a plank. The test is done on each of the right and left arms. The test measures eye-hand coordination and fine muscle control. […]

dendritic cells = details: mice model; cited from earlier work
[6] = many clinical studies; cited from earlier work
[7] = system: Jurkat cell line (lymphom of T cells); details: through inhibition of NFAT and MAPK-Erk 1/2; cited from earlier work
EAE model = details: prophylactic administration; cited from earlier work
microglia = details: cited from earlier work
PPMS patients = details: cited from earlier work
[8] = system: patients with Secondary progressive MS; details: cited from earlier work
[9] = system: subjects with Secondary progressive MS with relapses; details: vs placebo; cited from earlier work
[10] = system: patients with all clinical forms of MS; details: cited from earlier work
[11] = twelve months of treatment, FIG. 7
[12] = 4 mg/kg daily, day 15 to day 20 post-immunization, FIG. 3

Q: Which major side effects (progressive MS patients; in vivo) does the source give for `CN(Cc1cnc2nc(N)nc(N)c2n1)c1ccc(C(=O)N[C@@H](CCC(=O)O)C(=O)O)cc1` [methotrexate, Methotrexate] here?
A: no major side effects

Q: What about the “minor side effects reported” value (progressive MS patients; placebo 89.7%) of the same compound?
A: 87.1%

Q: What about the “sustained EDSS progression and number of relapses” value (progressive MS patients; vs placebo) of the same compound?
A: non-significant reduction

Q: What about the “time to first relapse” value (progressive MS patients; vs placebo) of the same compound?
A: no difference in time to first relapse

Q: What about the “slowing down / reduction of disability progression in progressive MS” value (“slowing down / reduction” below) (SP & PPMS forms) of the same compound?
A: do not show a reduction in the progression of disability

Q: Which “T cell activation (IL-2 release, T cell proliferation)” value [1] does the source give for Andrographolide here?
A: interferes with T cell activation

Q: What about the “effect in EAE” value ([2]; 4 mg/kg every second day, day 15 to day 30 post-immunization, FIG. 2) of the same compound?
A: has a therapeutic effect in EAE

Q: And the EAE clinical score (MOG-immunized mice (EAE))?
A: prevents EAE

Q: Which results are given for `O=P1(N(CCCl)CCCl)NCCCO1` (stereo not drawn) [cyclophosphamide, Cyclophosphamide]?
A: slowing down / reduction of disability progression in progressive MS (SP & PPMS forms): do not show a reduction in the progression of disability; long-term clinical disability progression (evolution to a next step of EDSS score) (MS participants; 12, 18, 24 months): did not prevent; mean change in disability (effect size) (MS participants; 12 months, 95% confidence interval −0.25 to −0.17): −0.21; mean change in disability (effect size) (MS participants; 18 months, 95% confidence interval −0.24 to −0.14): −0,19; mean change in disability (effect size) (MS participants; 24 months, CI 0.07 to 0.21, favoured the control group): 0.14

Q: Which local injection-site reactions (SPMS and PPMS patients; in vivo) does the source give for Glatiramer Acetate here?
A: up to a half of patients

Q: And the major toxicity (SPMS and PPMS patients; in vivo)?
A: No major toxicity

Q: And the “benefit in SPMS and PPMS patients” value (SPMS and PPMS patients; meta-analysis)?
A: No benefit

Q: What about the “time to sustained accumulated disability (hazard ratio)” value (patients with PPMS) of the same compound?
A: 0.87

Q: What about the “slowing down / reduction” value (SP & PPMS forms) of the same compound?
A: failed to demonstrate efficacy

Q: Which “slowing down / reduction” value (SP & PPMS forms) does the source give for `O=C1c2c(O)ccc(O)c2C(=O)c2c(NCCNCCO)ccc(NCCNCCO)c21` [mitoxantrone, Mitoxantrone] here?
A: do not show a reduction in the progression of disability

Q: And the “proportion of patients with 6-months confirmed progression of disability (Odds Ratios)” value [3]?
A: 0.3

Q: What about the “different clinical measures (difference vs placebo)” value [4] of the same compound?
A: 0.3

Q: Which results are given for `C=C1CC[C@@H]2[C@](C)(CO)[C@H](O)CC[C@@]2(C)[C@@H]1C/C=C1/C(=O)OC[C@H]1O` [andrographolide, Andrographolide]?
A: efficacy, interim results ([5]; 12 months of treatment): statistically-significant efficacy; Expanded Disability Status Scale (EDSS) ([5]; 12 months of treatment vs placebo, FIG. 6): an improvement viz placebo which becomes statistically-significant by nine months; MSIS 29 scale scores ([5]; preliminary, 2 years vs day 0, FIG. 11): maintain or slightly improve their scores; MSIS 29 scale ([5]; treatment group (a), after 2 years, from 80 at day 0, FIG. 11): 90 percentage; Nine Hole Pin Test, left hand (9HPT-L), time to complete [5, 11]: the improvement becomes statistically significant almost immediately; Nine Hole Pin Test, right hand (9HPT-R), time to complete [5, 11]: improvement becomes statistically significant by twelve months of treatment; 9-HPT (upper extremity function) ([5]; up to 2 year treatment, FIG. 10): the treated patients are more skilled and more quickly complete the task; 25-Feet Walk Test (25 FWT), time to complete ([5]; vs placebo, twelve months, preliminary data, FIG. 8): improvement becomes statistically significant immediately on commencement of treatment; demyelination in spinal cord (LFB) [2, 12]: reduced; inflammatory infiltrate in spinal cord (H&E) [2, 12]: reduced; maturation of dendritic cells and capacity to present antigens to T cells (dendritic cells): decreases; tolerability and safety [6]: well tolerated and safe; process of activation of Jurkat cell line [7]: decreases; development of EAE (EAE model): prevents the development Of EAE; reactive oxygen species, TNF-α, nitric oxide and prostaglandins E2 (microglia): reduces

Q: Which “increase in T2 lesion volume” value (PPMS patients; baseline to week 96, p<0.001) does the source give for Rituximab here?
A: less

Q: What about the brain volume change (PPMS patients; baseline to week 96, p=0.62) of the same compound?
A: similar

Q: What about the “confirmed disease progression, 96-week rate” value (PPMS patients; placebo 38.5%, p=0.14, not significant) of the same compound?
A: 30.2%

Q: And the adverse events (PPMS patients; vs placebo)?
A: comparable between groups

Q: For natalizumab, which “slowing down / reduction” value (SP & PPMS forms) is on record?
A: no effect on the progressive forms

Q: For Interferon beta-1b [IFNB-1b], which “time to confirmed 1.0 point progression on the Expanded Disability Status Scale (EDSS)” value ([8]; p=0.007) is on record?
A: delayed

Q: And the “progression of 2.0 EDSS point, lower” value ([8]; vs placebo)?
A: 27%

Q: And the “relapse and MRI-related outcomes” value [9]?
A: significant benefit

Q: What about the “time to confirmed progression of disability” value [9] of the same compound?
A: no treatment benefit

Q: What about the “slowing down / reduction” value (SP & PPMS forms) of the same compound?
A: failed to demonstrate efficacy

Q: With `Cn1cnc([N+](=O)[O-])c1Sc1ncnc2nc[nH]c12` [azathioprine, Azathioprine] as the compound, how does the “number of patients who had relapses, relative risk reduction [RRR]” value (“number … relative risk reduction [RRR]” for short) ([10]; first year of treatment, 95% CI=5% to 33%) read?
A: 20%

Q: What about the “number … relative risk reduction [RRR]” value ([10]; three years follow-up, 95% CI=7% to 27%) of the same compound?
A: 18%

Q: And the “number of patients who progressed, RRR” value ([10]; three years' follow-up, 95% CI=7% to 64%, 87 patients)?
A: 42%

Q: And the “number … relative risk reduction [RRR]” value ([10]; two years, 95% CI=12% to 33%)?
A: 23%

Q: What about the “slowing down / reduction” value (SP & PPMS forms) of the same compound?
A: do not show a reduction in the progression of disability
